Experimental data from patent US4670431A, “Beta-lactam antibacterial agents” (Beecham Group p.l.c., priority 1983, dated 1987).
Values after ≈ are worked out from the molar mass of the structure shown.

test system: P. mirabilis 889; assay: MIC against P. mirabilis 889; type: cell-based, Proteus mirabilis; details: not given
Description: The antibiotic compounds of the present invention are active against a wide range of gram negative and gram positive organisms including E. coli such as, for example ESS, JT4, JT425 and NCTC 10418; Pseudomonas Spp. such Ps.aeruginosa for example 10662 and Dalgleish; Serratia marcescens US32; Klebsiella aerogenes A; Enterobacter cloacae N1; P.mirabilis such as, for example C977 and 889; P.morganii, P.rettgeri; B.subtilis; Staph aureus such as, for example Oxford and Russell; N.catarrhalis 1502; Strep faecalis I; β-Haemolytic Strep CN10. The MIC data included in the following examples is representative of the activity of the compounds of the present invention.

In order of rising “MIC against P. mirabilis 889” value:
1. CCN1CCN(C(=O)N[C@@H](C(=O)N[C@]2(NC=O)C(=O)N3C(C(=O)O)=C(CSc4nnnn4C)C[S+]([O-])[C@@H]32)c2ccc(OC(C)=O)c(OC(C)=O)c2)C(=O)C1=O (single isomer, unassigned) [Example 5 Isomer B, Sodium 7β-[D-2-(3,4-diacetoxyphenyl)-2-[(4-ethyl-2,3-dioxopiperazin-1-yl)carbonylamino]acetamido]-7α-formamido-3-[(1-methyl-1H-tetrazol-5-yl)thiomethyl]-ceph-3-em-4-carboxylate-1-oxide]  0.06 µg/mL
2. CCN1CCN(C(=O)N[C@@H](C(=O)N[C@]2(NC=O)C(=O)N3[C@@H](C(=O)O)C(C)(C)[S+]([O-])[C@@H]32)c2ccc(OC(C)=O)c(OC(C)=O)c2)C(=O)C1=O (single isomer, unassigned; isomer b) [Example 18, Sodium 6β-[D-2-[(4-ethyl-2,3-dioxopiperazin-1-yl)carbonylamino]-2-(3,4-diacetoxyphenyl)acetamido]-6α-formamidopenicillanate-1-oxide, Isomer B]  0.5 µg/mL
3. CCN1CCN(C(=O)N[C@@H](C(=O)N[C@]2(NC=O)C(=O)N3C(C(=O)O)=C(CSc4nnnn4C)C[S+]([O-])[C@@H]32)c2ccc(OC(C)=O)c(OC(C)=O)c2)C(=O)C1=O (single isomer, unassigned) [Example 5 Isomer A, Sodium 7β-[D-2-(3,4-diacetoxyphenyl)-2-[(4-ethyl-2,3-dioxopiperazin-1-yl)carbonylamino]acetamido]-7α-formamido-3-[(1-methyl-1H-tetrazol-5-yl)thiomethyl]-ceph-3-em-4-carboxylate-1-oxide]  0.5 µg/mL

same assay, conditions: Proteus mirabilis, 889

In order of rising MIC:
1. CCN1CCN(C(=O)N[C@@H](C(=O)N[C@]2(NC=O)C(=O)N3[C@@H](C(=O)O)C(C)(C)[S+]([O-])[C@@H]32)c2ccc(OC(C)=O)c(OC(C)=O)c2)C(=O)C1=O (stereo partly drawn) [Example 4, Sodium 6β-[D-2-[(4-ethyl-2,3-dioxopiperazin-1-yl)carbonylamino]-2-(3,4-diacetoxyphenyl)acetamido]-6α-formamidopenicillanate-1-oxide]  0.12 µg/mL
2. CCN1CCN(C(=O)N[C@@H](C(=O)N[C@]2(NC=O)C(=O)N3C(C(=O)O)=C(CSc4nnnn4C)C[S@@+]([O-])[C@@H]32)c2ccc(O)c(O)c2)C(=O)C1=O [Example 16(e), Sodium 7β-[D-2-(3,4-dihydroxyphenyl)-2-[(4-ethyl-2,3-dioxopiperazin-1-yl)carbonylamino]acetamido]-7α-formamido-3-[(1-methyl-1H-tetrazol-5-yl)thiomethyl]-ceph-3-em-4-carboxylate-1α-oxide]  0.25 µg/mL
3. CCN1CCN(C(=O)N[C@@H](C(=O)N[C@]2(NC=O)C(=O)N3C(C(=O)[O-])=C(C[n+]4ccccc4)CS[C@@H]32)c2ccccc2)C(=O)C1=O [Example 7(c), 7β-[D-2-[(4-Ethyl-2.3-dioxopiperazin-1-yl)carbonylamino]-2-phenylacetamido]-7α-formamido-3-pyridiniummethyl-ceph-3-em-4-carboxylate]  0.5 µg/mL (≈ 0.787 µM)
4. CC(=O)OCC1=C(C(=O)O)N2C(=O)[C@@](NC=O)(NC(=O)Cc3cccs3)[C@H]2[S@+]([O-])C1 [Example 27(c), Sodium 7α-Formamido-7β-thien-2-ylacetamidocephalosporanate-1α-oxide]  2 µg/mL
5. CC1(C)[C@H](C(=O)O)N2C(=O)[C@@](NC=O)(NC(=O)[C@H](NC(=O)N3CCN(S(C)(=O)=O)C3=O)c3ccc(O)cc3)[C@H]2[S+]1[O-] (single isomer, unassigned; isomer b) [Example 24, Sodium 6β-[D-2-(4-hydroxyphenyl)-2-[[3-(methylsulphonyl)-2-oxoimidazolidin-1-yl]carbonylamino]acetamido]-6α-formamidopenicillanate-1-oxide (isomer B)]  2 µg/mL
6. CC(=O)OCC1=C(C(=O)O)N2C(=O)[C@@](NC=O)(NC(=O)Cc3cccs3)[C@H]2[S@@+]([O-])C1 [Example 27(b), Sodium 7α-Formamido-7β-thien-2-ylacetamidocephalosporanate-1β-oxide]  8 µg/mL
